Experimental data taken from patent publication US12173018B2, “Penicillin-binding protein inhibitors” (priority 2018, dated 2024).
Converted amounts (≈) assume the structure as drawn.

Legend:
[1] = tested on: E. coli DH5α empty pLBII vector control strain; assay: microbe, parasite or virus in culture; assay type: cell-based, Escherichia coli; conditions: Escherichia coli, read-out: Microbiological Activity (MIC in mg/L), E. coli DH5α/pLBII
In short: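 MIC was the lowest concentration visibly free of growth after 16–20 h at 37 °C, against 5×10^5 CFU/mL of the empty-pLBII DH5α control strain. Twofold compound dilutions were made in cation-adjusted Mueller-Hinton broth.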

E. coli PBP1a = E. coli PBP1a (Escherichia coli (strain K12), UniProt P02918); assay: Radioligand competition binding assay with 14C-labeled boronic acid probe, PBP1a
E. coli PBP1a, sequence (P02918 whole entry): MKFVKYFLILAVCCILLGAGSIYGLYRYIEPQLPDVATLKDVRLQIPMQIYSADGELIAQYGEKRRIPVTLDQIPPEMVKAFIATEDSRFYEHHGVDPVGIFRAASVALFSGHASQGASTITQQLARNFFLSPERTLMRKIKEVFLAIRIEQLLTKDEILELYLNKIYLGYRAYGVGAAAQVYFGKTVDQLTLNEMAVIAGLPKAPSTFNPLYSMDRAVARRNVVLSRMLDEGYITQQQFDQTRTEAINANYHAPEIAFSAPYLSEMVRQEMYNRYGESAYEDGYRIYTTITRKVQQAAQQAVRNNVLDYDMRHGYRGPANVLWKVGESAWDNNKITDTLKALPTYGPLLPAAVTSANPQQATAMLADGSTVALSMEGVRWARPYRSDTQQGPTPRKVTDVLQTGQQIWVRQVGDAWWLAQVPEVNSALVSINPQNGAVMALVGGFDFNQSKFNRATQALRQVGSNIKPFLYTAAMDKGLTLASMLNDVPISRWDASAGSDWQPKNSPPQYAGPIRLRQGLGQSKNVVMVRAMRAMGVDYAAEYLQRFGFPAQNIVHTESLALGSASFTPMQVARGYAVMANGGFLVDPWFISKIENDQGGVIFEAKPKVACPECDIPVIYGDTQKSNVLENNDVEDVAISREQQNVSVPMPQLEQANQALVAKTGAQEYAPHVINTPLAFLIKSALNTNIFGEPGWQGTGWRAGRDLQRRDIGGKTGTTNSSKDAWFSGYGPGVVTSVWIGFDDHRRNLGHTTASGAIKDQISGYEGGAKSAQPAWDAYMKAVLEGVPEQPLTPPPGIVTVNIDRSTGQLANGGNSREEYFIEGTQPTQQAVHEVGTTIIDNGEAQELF
Excerpt: To determine the ability of boronic acid-based test PBP inhibitors to bind Penicillin Binding Proteins (PBPs), a radio-labelled boronic acid PBP inhibitor
[drawing 751] was used in competition binding assays to determine boronic acid PBP inhibitor binding to PBP1a or PBP1b from Escherichia coli. PBP1a and PBP1b were purified as described previously (Bertsche, U.; et al., J. Biol. Chem. 2005, 280 (45), 38096-38101; Born, P.; et al., J. Biol. Chem. 2006. 281 (37), 26985-26993). To establish assay conditions for competition binding, an enzyme titration/saturation binding experiment was performed. Saturation binding was performed in a buffer comprised of 20 mM Tris (pH 7.5), 500 mM NaCl and 0.1% (v/v) TritonX-100, with PBP1a/PBP1b at a final concentration of 0.1 μM and Compound A at final concentrations ranging from 0-100 μM. Mixtures were incubated for 60 minutes, then applied to Zeba Spin Desalting columns or plates (ThermoFisher Scientific) and centrifuged at 1000-1500×g for 2 minutes. The flow through, containing PBP bound with Compound A, was recovered and 100 μL mixed with 5 mL of UltimaGold liquid scintillation cocktail (Perkin Elmer), and the radioactivity counted using a Beckman Coulter LS 6500 Multipurpose scintillation counter. PBP binding of Compound A approached saturation at 20 μM of ^14C-labeled probe. The competition binding assay was validated using the beta-lactam ampicillin, with Compound A at a final concentration of 20 μM, PBP1a/PBP1b at a final concentration of 0.1 μM. PBP1a/PBP1b was incubated with ampicillin in a 96-well microplate for 60 minutes, then Compound A was added and the mixtures incubated for an additional 60 minutes. The mixtures were then applied to Zeba Spin desalting plates and centrifuged at 1000×g for 2 minutes. The flow through was recovered and 100 μl mixed with 5 ml of UltimaGold liquid scintillation cocktail and the radioactivity counted. […] Binding assays with boronic acid PBP inhibitors were performed in an identical fashion. The potency of boronic acid PBP inhibitors was reported as the EC50 value.

[2] = tested on: engineered strain of Escherichia coli harboring CTX-M15; assay: microbe, parasite or virus in culture; assay type: cell-based; conditions: Escherichia coli, read-out: Microbiological Activity (MIC in mg/L), E. coli DH5α/pLBII-CTX-M15, engineered strain producing CTX-M15
E. coli PBP2 = E. coli PBP2 (Escherichia coli (strain K12), UniProt P0AD65); assay: E. coli PBP2 Bocillin-FL fluorescence polarization competition binding assay; conditions: fluorescence polarization competition binding with Bocillin-FL; read-out: E. coli K12 PBP2 Potency (EC50)
E. coli PBP2, sequence (P0AD65 whole entry): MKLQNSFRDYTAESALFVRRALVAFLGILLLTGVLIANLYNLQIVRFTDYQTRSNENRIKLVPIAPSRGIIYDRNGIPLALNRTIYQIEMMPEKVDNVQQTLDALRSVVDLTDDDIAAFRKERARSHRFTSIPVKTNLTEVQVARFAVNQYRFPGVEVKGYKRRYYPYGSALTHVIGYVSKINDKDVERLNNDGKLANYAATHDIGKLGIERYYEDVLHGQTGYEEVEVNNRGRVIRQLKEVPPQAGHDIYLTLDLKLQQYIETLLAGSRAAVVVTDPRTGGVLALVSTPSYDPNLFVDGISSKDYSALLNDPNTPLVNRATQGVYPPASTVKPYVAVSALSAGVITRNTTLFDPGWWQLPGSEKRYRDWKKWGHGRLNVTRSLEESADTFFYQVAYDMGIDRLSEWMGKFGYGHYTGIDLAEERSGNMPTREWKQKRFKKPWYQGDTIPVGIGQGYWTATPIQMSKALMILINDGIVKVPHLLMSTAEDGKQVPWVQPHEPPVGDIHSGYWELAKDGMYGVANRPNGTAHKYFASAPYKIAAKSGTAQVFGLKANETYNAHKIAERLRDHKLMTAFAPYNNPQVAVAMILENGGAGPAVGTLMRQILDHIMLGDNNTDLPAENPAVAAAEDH
Excerpt: To determine the ability of boronic acid-based test PBP inhibitors to bind Penicillin Binding Proteins (PBPs), Bocillin-FL (fluorescently-labeled penicillin V; ThermoFisher Scientific) was used in a fluorescence polarization (FP) competition binding assay to assess inhibitor binding to PBP2, PBP3 or PBP4 from Escherichia coli. PBPs were cloned and purified as described previously (King, D. T, et al., ACS Infectious Diseases 2015, 1, 175-184). To establish assay conditions for competition binding, an enzyme titration/saturation binding experiment was initially performed. Bocillin-FL was prepared at 0.2 μM in a buffer comprised of 50 mM Hepes (pH 8.0), 300 mM NaCl and 5% (v/v) glycerol. Saturation binding was performed by mixing 40 μl of PBP solutions ranging in concentrations from 0-12 μM with 40 μl of the 0.2 μM Bocillin-FL solution, in individual wells of a black 384-well microplate. FP was measured immediately upon mixing (Excitation, 490 nm; Emission, 520 nm; g-factor, 0.96), using a Cytation3 (BioTek) microplate reader and measured continuously for up to 120 minutes. […] For all PBPs the FP signal approached saturation with 1.5 μM PBP (final concentration). […] Assays (80 μl final volume) were performed with PBPs at a final concentration of 1.5 μM, Bocillin-FL at 0.1 μM and beta-lactam concentrations that ranged from 0-1000 μM. […] Bocillin-FL was added and the FP immediately measured for 60 minutes (90 minutes for PBP2). The beta-lactam potency was reported as the concentration of beta-lactam required to reduce binding of Bocillin-FL by […] (EC50). […] Binding assays for boronic acid PBP inhibitors were performed in an identical fashion.

E. coli PBP3 = E. coli PBP3 (Escherichia coli (strain K12), UniProt P0AD68); assay: E. coli PBP3 Bocillin-FL fluorescence polarization competition binding assay
E. coli PBP3, sequence (P0AD68 whole entry): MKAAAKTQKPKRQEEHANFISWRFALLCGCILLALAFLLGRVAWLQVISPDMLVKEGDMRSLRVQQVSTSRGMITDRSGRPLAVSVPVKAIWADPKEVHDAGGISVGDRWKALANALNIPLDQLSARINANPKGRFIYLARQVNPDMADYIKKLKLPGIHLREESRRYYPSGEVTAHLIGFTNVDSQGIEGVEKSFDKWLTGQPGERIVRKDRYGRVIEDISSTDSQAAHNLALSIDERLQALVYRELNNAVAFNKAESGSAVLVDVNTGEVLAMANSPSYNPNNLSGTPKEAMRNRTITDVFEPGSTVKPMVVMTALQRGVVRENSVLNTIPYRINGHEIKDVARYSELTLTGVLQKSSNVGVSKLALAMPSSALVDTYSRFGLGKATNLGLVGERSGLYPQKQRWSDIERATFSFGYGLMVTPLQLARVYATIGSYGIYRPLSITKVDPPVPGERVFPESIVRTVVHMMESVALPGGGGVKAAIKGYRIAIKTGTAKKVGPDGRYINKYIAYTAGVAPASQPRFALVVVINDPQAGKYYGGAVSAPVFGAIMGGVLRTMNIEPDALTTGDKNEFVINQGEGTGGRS
In short: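 This was a fluorescence polarization competition with fluorescent penicillin Bocillin-FL (0.1 μM final), read at 490/520 nm for 60 min immediately after its addition. The buffer was Hepes pH 8.0 with 300 mM NaCl and 5% glycerol, containing 1.5 μM PBP and test inhibitor up to 1000 μM. Potency is expressed as EC50 for reducing probe binding.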

In the case of `CCN1CCN(C(=O)NC(C(=O)N[C@H]2Cc3cccc(C(=O)O)c3OB2O)c2ccc(OC)nc2)C(=O)C1=O` (stereo partly drawn) [Example 34, (3R)-3-(2-(4-ethyl-2,3-dioxopiperazine-1-carboxamido)-2-(6-methoxypyridin-3-yl)acetamido)-2-hydroxy-3,4-dihydro-2H-benzo[e][1,2]oxaborinine-8-carboxylic acid], the MIC [1] is reported as 128 to 256 mg/L (≈ 237 to 475 µM), the EC50 (E. coli PBP1a) is reported as < 10 µM and the MIC [2] is reported as 128 to 256 mg/L (≈ 237 to 475 µM). The EC50 (E. coli PBP2) was > 500 µM and the EC50 (E. coli PBP3) was 30 to 500 µM.
